Where two headings read alike, the source gives them in different places.
Columns and labels:
MRSA [1] = assay: MIC by checkerboard method, comparison with piperine; type: cell-based, Staphylococcus aureus; settings: Staphylococcus aureus, Tables 5A/5B, Mupirocin alone, read-out: MIC Mupirocin
MRSA 450 = assay: MIC by checkerboard method; type: cell-based; settings: Staphylococcus aureus; Mupirocin alone; S aureus MRSA 450; read-out: MIC of Mupirocin
S aureus ATCC 29213 = assay: MIC by checkerboard method; type: cell-based, Staphylococcus aureus; settings: Staphylococcus aureus
MRSA [2] = assay: Wound infection treatment in mice; type: in vivo; settings: for Growth / Mean CFU: MRSA wound infection in mice
Procedure: The study was conducted to see the in vivo response of Mupirocin in combination with the above-mentioned potentiator. Wound area of 1.5 cm×1.5 cm was created on the skin of mice by abrasion with sand paper. An inoculum of 10^8 CFU/ml of MRSA was applied on to this wound area. The wound was treated for five days (two applications a day) with mupirocin cream and the other group with a formulation of mupirocin at ¼^th concentration and compound of formula 1a. […] (Table-6).

MRSA 33 = assay: MIC by checkerboard method; type: cell-based; settings: Staphylococcus aureus; Mupirocin alone; S aureus MRSA 33; read-out: MIC of Mupirocin
MRSA 15187 = assay: MIC by checkerboard method; type: cell-based; settings: Staphylococcus aureus; Mupirocin alone; S aureus MRSA 15187
Acute toxicity study = type: in vivo; settings: mice
Text: Parameters monitored were: Food/water consumption, body weight, organ weight, haematological and clinical chemistry profile.

[3] = test system: Staphylococcus aureus, MRSA and Staphylococcus hemolyticus; assay: Decrease in MIC of ciprofloxacin in combination; type: cell-based; settings: bacterial species (Table-2)
[4] = test system: S. aureus ATCC 29213 (wild strain); assay: Ethidium bromide accumulation and efflux; settings: compound 25 μg/ml, ethidium bromide 2 μg/ml
Procedure: Briefly, for measurement of the level of accumulation, both the bacterial strains were grown overnight on Trypticase Soya Agar. Bacterial suspensions were prepared at an optical density at 550 nm of 0.2 in uptake buffer (NaCl, 110 mM; KCl, 7 mM; NH4Cl, 50 mM; Na2HPO4, 0.4 mM; Tris base, 52 mM; glucose, 0.2% adjusted to pH 7.5 with HCl) and were then exposed to ethidium bromide at a concentration of 2 μg/ml. The increase in fluorescence as ethidium bromide entered the cells was recorded fluorometrically with a Perkin-Elmer model LS50 spectrofluorimeter (excitation λ, 530 nm; emission λ, 600 nm) at 30° C.
For determining ethidium bromide loss, bacterial suspensions were prepared as described above and were exposed to ethidium bromide (2 μg/ml) in the presence of compound of formula 1a (25 μg/ml) for 30 min at 37° C. The cells were then pelleted by centrifugation and were resuspended in fresh uptake buffer. The loss of ethidium bromide from the cells was measured as a decrease in fluorescence (FIG. IB)

[5] = test system: mice and guinea pig models infected with microorganisms; assay: In vivo infection models, combinations with anti-infective agents
Text: These combinations were also efficacious when tested in in vivo using mice and guinea pig models infected with microorganisms (table-7).

[6] = test system: S. aureus 29213, MRSA and M. tuberculosis H37Rv; assay: Comparison of potentiating activity with piperine; type: cell-based; settings: Ciprofloxacin, Amikacin, Rifampicin and Mupirocin (Table-5 A & B)
Procedure: Minimum Inhibitory Concentration (MIC) of antibacterial agents (Ciprofloxacin, Amikacin, Rifampicin and Mupirocin) was determined alone and in combination with compound of formula (1a). MIC of the abovementioned antibacterial agents was also determined in combination with piperine.

[7] = 2% Mupirocin, five days, two applications a day
[8] = 0.25% Mupirocin + 0.25% compound of formula 1
[9] = 0.5% Mupirocin + 0.25% compound of formula 1

SMILES	MIC (MRSA [1]) [µg/mL]	MIC (MRSA 450) [µg/mL]	MIC (S aureus ATCC 29213; ATCC29213, Mupirocin alone, read-out: MIC of Mupirocin) [µg/mL]	MIC (S aureus ATCC 29213; ATCC29213, Tables 5A/5B, Mupirocin alone, read-out: MIC Mupirocin) [µg/mL]	Growth (MRSA [2]; [7])	Mean CFU (MRSA [2]; [7])	MIC (MRSA 33) [µg/mL]	MIC (MRSA 15187) [µg/mL]	LD50 (oral) (Acute toxicity study) [gm/kg]	reductions in MIC of ciprofloxacin in combination with the potentiator [3]	accumulation of ethidium bromide ([4]; S. aureus wild type (FIG. IA))	efflux of ethidium bromide ([4]; S. aureus wild type (FIG. IB))	efficacy of combinations with anti-infective agents in vivo [5]	Growth (MRSA [2]; [8])	Mean CFU (MRSA [2]; [8])	Growth (MRSA [2]; [9])	Mean CFU (MRSA [2]; [9])	Growth (MRSA [2]; 0.5% Mupirocin + 0.5% compound of formula 1)	wound healing (MRSA [2]; combination of mupirocin with compound of formula-1a vs mupirocin cream, MRSA-infected skin wound of mice, five days)	potency relative to piperine in reducing the MICs of the antibacterial agents [6]
C/C(=C\C(=O)OCCCCCCCCC(=O)O)C[C@@H]1OC[C@H](C[C@@H]2O[C@H]2[C@@H](C)[C@H](C)O)[C@@H](O)[C@H]1O [Mupirocin, reference compound]	0.12	0.25	0.12	0.12	3/5	1.08 × 10^4 CFU	0.12	0.25	–	–	–	–	–	–	–	–	–	–	–	–
CCC(/C=C/C(=O)N1CCCCC1)=C\c1ccc2c(c1)OCO2 [compound of formula 1a, 4-ethyl-5-(3,4-methylenedioxyphenyl)-2E,4E-pentadienoic acid piperidine amide]	–	–	–	–	–	–	–	–	> 3.0	Two to more than eight fold	Increased Accumulation	Decreased Efflux	efficacious	4/5	2.5 × 10^4 CFU	1/5	4.0 × 10^3 CFU	0/5	better wound healing	four times more potent than piperine

From patent US8580752B2, “Aromatic amides as potentiators of bioefficacy of anti-infective drugs” (priority 2005, dated 2013)
